Assay results taken from publication PMC11714206, “Massively Parallel Screening of Toll/Interleukin‐1 Receptor (TIR)‐Derived Peptides Reveals Multiple Toll‐Like Receptors (TLRs)‐Targeting Immunomodulatory Peptides” (Advanced Science, 2024).
Several values for one entry are separate records, joined by “and”; a condition that tells them apart may be missing. Identical values can stand only once. Each block holds one sequence with its values, some of them ahead of it.

Target: T1, MAL^TIR (Homo sapiens, UniProt P58753)
T1 construct: MAL (residues 79–221); 6xHis; made in house; host or cells: E. coli BL21 (DE3)
T1 sequence (P58753 79-221): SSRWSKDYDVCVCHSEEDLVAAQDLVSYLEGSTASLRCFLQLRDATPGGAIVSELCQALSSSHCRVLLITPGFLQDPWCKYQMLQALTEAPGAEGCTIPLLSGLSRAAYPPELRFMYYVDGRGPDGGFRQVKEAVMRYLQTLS
Experiment: T‐Surf phage library (P8 and P3) selection against MAL^TIR, four rounds, NGS read counts
Format: binding
Settings: for Population: 4th round of selection against MAL TIR, share of NGS reads; for P3_MAL Rank (after) / P3_MAL Rank (before): P3 library; for P8_MAL Rank (after) / P8_MAL Rank (before): P8 library
Outline: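 P8 and P3 T‐Surf libraries panned against plate-coated TIR domains (5 µg mL^−1), 1 h binding at RT, acid elution and TG1/helper-phage amplification per round. After four rounds, pools were PCR-barcoded and sequenced (NovaSeq, 100 bp paired-end, Phred ≥30); peptides ranked by read counts.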

[1] = P3_MAL: rank by count after grouping
[2] = P3_MAL: rank by count before grouping
[3] = 4R selection against MAL, rank after grouping
[4] = 4R selection against MAL, rank before grouping
[5] = selection against MAL, rank by count after grouping
[6] = selection against MAL, rank by count before grouping
[7] = selection against MAL, rank after grouping
[8] = selection against MAL, rank before grouping
[9] = selection against MAL TIR, rank by count after grouping
[10] = selection against MAL TIR, rank by count before grouping
[11] = P8_MAL: rank by count after grouping
[12] = P8_MAL: rank by count before grouping
[13] = P8_MAL pool: P8 T-Surf phage library

P3_MAL Rank (after) [5]: 758 | P3_MAL Rank (before) [6]: 3484
Sequence: KWFLAKLIYALSRNPH

P3_MAL Rank (after) [3]: 672 | P3_MAL Rank (before) [4]: 3487
Sequence: KWFWDTLTYAPNLSPH

P8_MAL Rank (after) [7]: 535 | P8_MAL Rank (before) [8]: 2162
Sequence: LCFRESLKQLLRSNGR

Rank (after) [11]: 169 | Rank (before) [12]: 2151
Sequence: LFCWESLKQLLRSDCR

P8_MAL Rank (after) [3]: 580 | P8_MAL Rank (before) [4]: 2134
Sequence: LFFGASLKQLLRSDGR

P8_MAL Rank (after) [7]: 557 | P8_MAL Rank (before) [8]: 2064
Sequence: LFFWARLKNVLGSAGS

P8_MAL Rank (after) [3]: 648 | P8_MAL Rank (before) [4]: 2065
Sequence: LFFWASLNKLLRSDGR

P8_MAL Rank (after) [7]: 564 | P8_MAL Rank (before) [8]: 2069
Sequence: LFFWDSLKQLLRSAGR

P8_MAL Rank (after) [3]: 601 | P8_MAL Rank (before) [4]: 2071
Sequence: LFFWECLKKLLRRDGR

Rank (after) [11]: 454 | Rank (before) [12]: 2074
Sequence: LFFWEILKQLLRSAGR

Rank (after) [11]: 387 | Rank (before) [12]: 2124
Sequence: LFFWEKLRQLLRRAAS

Rank (after) [11]: 100 | Rank (before) [12]: 2072
Sequence: LFFWERLKQLLRSDCR

P8_MAL Rank (after) [7]: 531 | P8_MAL Rank (before) [8]: 2114
Sequence: LFFWESLKKLLRSAGR

Rank (after) [11]: 431 | Rank (before) [12]: 2115
Sequence: LFFWESLKNVLGSDGR

P8_MAL Rank (after) [7]: 495 | P8_MAL Rank (before) [8]: 2116
Sequence: LFFWESLKNVLRKPGL

Rank (after) [11]: 467 | Rank (before) [12]: 2088
Sequence: LFFWESLKPLPRRDGR

Rank (after) [11]: 473 | Rank (before) [12]: 2095
Sequence: LFFWESLKQLLRAMA

Population [13]: 0.0034%
Sequence: LFFWESLKQLLRSAGR

Rank (after) [11]: 178 | Rank (before) [12]: 2104
Sequence: LFFWESLKQLLRSDG

P8_MAL Rank (after) [7]: 538 | P8_MAL Rank (before) [8]: 2102
Sequence: LFFWESLKQLLRSVGH

P8_MAL Rank (after) [3]: 669 | P8_MAL Rank (before) [4]: 2109
Sequence: LFFWESLKQLLRTVLGKPTM

P8_MAL Rank (after) [3]: 608 | P8_MAL Rank (before) [4]: 2112
Sequence: LFFWESLKQPLRSEGR

P8_MAL Rank (after) [9]: 193 | P8_MAL Rank (before) [10]: 2118
Sequence: LFFWESLKQRLRSDVR

Rank (after) [11]: 128 | Rank (before) [12]: 2061
Sequence: LFFWGSLKQLLRNDGR

P8_MAL Rank (after) [9]: 260 | P8_MAL Rank (before) [10]: 2058
Sequence: LFFWGSLRQLLRNDDG

Rank (after) [11]: 124 | Rank (before) [12]: 2128
Sequence: LFFWKSLKQLLRSDSR

P8_MAL Rank (after) [3]: 646 | P8_MAL Rank (before) [4]: 2170
Sequence: LFFYESLKHLLRIDCR

P8_MAL Rank (after) [3]: 652 | P8_MAL Rank (before) [4]: 2150
Sequence: LFLGESLKLLRRSDGR

P8_MAL Rank (after) [3]: 661 | P8_MAL Rank (before) [4]: 2142
Sequence: LFLWASLKQLLRSANC

P8_MAL Rank (after) [9]: 224 | P8_MAL Rank (before) [10]: 2143
Sequence: LFLWDSLKQPLRSDGR

P8_MAL Rank (after) [9]: 232 | P8_MAL Rank (before) [10]: 2146
Sequence: LFLWESLKHLLRSDGR

P8_MAL Rank (after) [5]: 719 | P8_MAL Rank (before) [6]: 2147
Sequence: LFLWESLKHLLRSDSL

P8_MAL Rank (after) [9]: 276 | P8_MAL Rank (before) [10]: 1101
Sequence: LFYEESLKQLLRANDR

P8_MAL Rank (after) [7]: 496 | P8_MAL Rank (before) [8]: 1104
Sequence: LFYERLVSLILRDTRG

P8_MAL Rank (after) [3]: 624 | P8_MAL Rank (before) [4]: 1103
Sequence: LFYERLVSLILRHTRV

P3_MAL Rank (after) [3]: 671 | P3_MAL Rank (before) [4]: 2132
Sequence: LHNNRILVLITLPTNV

P3_MAL Rank (after) [5]: 744 | P3_MAL Rank (before) [6]: 2310
Sequence: LKEESWRQAQEKAGKL

P3_MAL Rank (after) [7]: 533 | P3_MAL Rank (before) [8]: 2303
Sequence: LKGESWRQAREKAGKL

P3_MAL Rank (after) [7]: 484 | P3_MAL Rank (before) [8]: 2258
Sequence: LKVEGWRLALEKAGTL

More lines, now with the values behind:

Sequence: KTLAGLLYDHLFRLRL
Population (P3_MAL pool: P3 T-Surf phage library): 0.0233% | Rank (after) [1]: 101 | Rank (before) [2]: 102

Sequence: KTLAGLRCDHLFRLRL
P3_MAL Rank (after) [3]: 639 | P3_MAL Rank (before) [4]: 3743

Sequence: KWFWDKLIYALSRIR
P3_MAL Rank (after) [7]: 545 | P3_MAL Rank (before) [8]: 3495

Sequence: KWFWDKLIYALSRNPH
P8_MAL Rank (after) [9]: 231 | P8_MAL Rank (before) [10]: 1067

Sequence: KWFWDKLIYPLSRNPQ
P3_MAL Rank (after) [9]: 239 | P3_MAL Rank (before) [10]: 3510

Sequence: KWFWEKLRYALTYRPAT
P3_MAL Rank (after) [3]: 602 | P3_MAL Rank (before) [4]: 3516

Sequence: LCFCESLKQLLRSDGR
Rank (after) [11]: 110 | Rank (before) [12]: 2161

Sequence: LELGDPYFWSKLRYAM
Rank (after) [1]: 453 | Rank (before) [2]: 2129

Sequence: LFFCESLKQLLRSDGH
P8_MAL Rank (after) [9]: 244 | P8_MAL Rank (before) [10]: 2057

Sequence: LFFCESLKQLLRSDGR
Population [13]: 0.00371% and 0.0034%

Sequence: LFFGKALNSCCVAIA
P8_MAL Rank (after) [3]: 649 | P8_MAL Rank (before) [4]: 2136

Sequence: LFFWASLKNLLRSAGS
Rank (after) [11]: 389 | Rank (before) [12]: 2066

Sequence: LFFWDSLKHLLRCDGC
P8_MAL Rank (after) [3]: 593 | P8_MAL Rank (before) [4]: 2068

Sequence: LFFWDSLKQLMRSDGR
P8_MAL Rank (after) [9]: 283 | P8_MAL Rank (before) [10]: 2070

Sequence: LFFWEHLKQLLRNDGR
P8_MAL Rank (after) [7]: 513 | P8_MAL Rank (before) [8]: 2073

Sequence: LFFWEKLKSVLGNPTM
P8_MAL Rank (after) [5]: 693 | P8_MAL Rank (before) [6]: 2067

Sequence: LFFWESLKQLLGNPTM
Rank (after) [11]: 177 | Rank (before) [12]: 909

Sequence: LFFWESLKQLLRRAGL
P8_MAL Rank (after) [9]: 252 | P8_MAL Rank (before) [10]: 2096

Sequence: LFFWESLKQLLRRWP
P8_MAL Rank (after) [7]: 563 | P8_MAL Rank (before) [8]: 2097

Sequence: LFFWESLKQLLRSGGR
Population [13]: 0.0034%

Sequence: LFFWESLKQLLRSVGR
Population [13]: 0.0034%

Sequence: LFFWGSLKHLLRSGCR
P8_MAL Rank (after) [5]: 691 | P8_MAL Rank (before) [6]: 2059

Sequence: LFLWECLKQLLRSDGR
P8_MAL Rank (after) [7]: 507 | P8_MAL Rank (before) [8]: 2144

Sequence: LFWELLRQALGSRNRL
P8_MAL Rank (after) [7]: 488 | P8_MAL Rank (before) [8]: 2152

Sequence: LFYERLVSLMLRDTKG
P8_MAL Rank (after) [9]: 274 | P8_MAL Rank (before) [10]: 1105

Sequence: LFYGRMVSLILRDTNV
P8_MAL Rank (after) [3]: 639 | P8_MAL Rank (before) [4]: 1100

Sequence: LGFFCNQAKALSDRGI
Rank (after) [1]: 435 | Rank (before) [2]: 2116

Sequence: LGFLRHLRHHLQAKDH
P3_MAL Rank (after) [5]: 693 | P3_MAL Rank (before) [6]: 2082

Sequence: LGFLSHLALNLQAKEH
Rank (after) [1]: 399 | Rank (before) [2]: 2081

Sequence: LGKPGVTDEAQETGSL
Rank (after) [1]: 95 | Rank (before) [2]: 95

Sequence: LKAERWRQALEKAGKL
P3_MAL Rank (after) [9]: 226 | P3_MAL Rank (before) [10]: 2304

Sequence: LKAESWRQAPEKAGKL
P3_MAL Rank (after) [9]: 259 | P3_MAL Rank (before) [10]: 2306

Sequence: LKEESWRRALERAGKL
Rank (after) [1]: 410 | Rank (before) [2]: 2307

Sequence: LKVERWRQALEKADKL
P3_MAL Rank (after) [9]: 215 | P3_MAL Rank (before) [10]: 2299

Sequence: LKVESWLQTLAKAGKL
P3_MAL Rank (after) [5]: 763 | P3_MAL Rank (before) [6]: 2262

Sequence: LKVESWRQALEKAGT
P3_MAL Rank (after) [7]: 549 | P3_MAL Rank (before) [8]: 2274

Sequence: LKVESWRQALKQRAL
P3_MAL Rank (after) [7]: 483 | P3_MAL Rank (before) [8]: 2283

Sequence: LKVESWRRAPEKAGKL
Rank (after) [1]: 457 | Rank (before) [2]: 2263

Sequence: LKVKLASGAGKSGQT
P3_MAL Rank (after) [3]: 619 | P3_MAL Rank (before) [4]: 2301

Sequence: LKWGDPRQASKLGYTM
P3_MAL Rank (after) [5]: 761 | P3_MAL Rank (before) [6]: 2242
